Here are results for five compounds from patent US4032641A, “Nicotinoyl carnitine derivatives” (Tanabe Seiyaku Co., Ltd., priority 1976, dated 1977).

One data set relates to Blood-free fatty acids. As to the kind of experiment: Experiment I: blood free fatty acid after oral administration to fasted rats. The format is in vivo, rat. The settings on record: 1 mmol/kg, mean. The protocol: (§1) Test compounds are administered orally to groups of 5 rats (body weight: about 290 g) which fasted overnight. Blood samples were collected from the tail vein at intervals. Blood free fatty acid, serum-triglyceride and serum-cholesterol were determined, respectively.

Another data set relates to Serum-cholesterol. Put plainly: Experiment I: serum-cholesterol after oral administration to fasted rats. The format is in vivo, rat. The settings on record: 1 mmol/kg, mean. The protocol: as §1
For another data set, the system named is Serum triglyceride. As to the kind of experiment: Experiment I: serum-triglyceride after oral administration to fasted rats. The format is in vivo, rat. To be noted: 1 mmol/kg, rats about 290 g, mean. The procedure: as §1
The next data set has as its system Serum-triglyceride. As to the kind of experiment: Experiment II: serum-triglyceride after oral administration to fasted rats. The format is in vivo, rat. The settings on record: 1 mmol/kg, rats about 170 g, mean ± standard error. The protocol: Test compounds were administered orally to groups of 5 rats (body weight: about 170 g) which fasted overnight. Blood samples were collected from the tail vain at intervals, and serum-triglyceride was determined.

Data set [1] in a line: Experiment III: acute toxicity, oral, ddY male mice (Van der Waerden's Method). To be noted: mouse, in vivo, ddY-strain male mice. The protocol:
(§2) Test compounds were administered orally to ddY male mice or SD-strain male rats. Seventy-two hours after the administration, 50% lethal dose of the test compounds were estimated in accordance with Van der Waerden's Method.

Data set [2] in a line: Experiment III: acute toxicity, oral, SD-strain male rats (Van der Waerden's Method). The settings on record: rat, in vivo. The procedure:
as §2

For data set [3], the system named is cholesterol and triglyceride levels in plasma. To be noted: literature; cited from earlier work.
The conditions of data set [4]: use as hypolipidemic agent; known; cited from earlier work.
The mark [5] stands for this setting: 0 hrs after oral administration.
Where [6] appears, read: 2 hrs after oral administration.
The mark [7] stands for this setting: 6 hrs after oral administration.
The mark [8] stands for this setting: 10 hrs after oral administration.
Setting [9] is: 12 hrs after oral administration.

Structures are written as SMILES. Counter-ions that a name gives are not always drawn.

For the compound `CCOC(=O)CC(C[N+](C)(C)C)OC(=O)c1cccnc1` (stereo not shown) [A, Nicotinoyl carnitine ethyl ester nitrate . HNO3], the Blood-free fatty acids in the data set with Blood-free fatty acids (setting [5]) came out at 52 μ moles/dl; in the data set with Blood-free fatty acids (setting [6]), 27 μ moles/dl; in the data set with Blood-free fatty acids (setting [7]), 29 μ moles/dl; with Blood-free fatty acids (setting [8]), 65 μ moles/dl. The results for the Serum-cholesterol with Serum-cholesterol (setting [7]) and in the data set on Serum-cholesterol (setting [8]) were 55 mg/dL and 50 mg/dL, respectively. For the same compound, the Serum triglyceride in the data set on Serum triglyceride (setting [7]) turned out to be 12 mg/dL; in the data set on Serum triglyceride (setting [8]) it was 16 mg/dL.

As for `CCOC(=O)CC(C[N+](C)(C)C)OC(=O)c1cccnc1` (stereo not shown) [B, Nicotinoyl carnitine ethyl ester chloride. H2 O], the Serum-triglyceride in the data set on Serum-triglyceride (setting [7]) is 13 ± 5 mg/dL; in the data set with Serum-triglyceride (setting [9]) it was 13 ± 4 mg/dL. For the same compound, the values for the LD50 at 72 h in data set [1] and in data set [2] were 5900 mg/kg and 6900 mg/kg, respectively.

For `C[N+](C)(C)CC(CC(=O)OCc1ccccc1)OC(=O)c1cccnc1` (stereo not shown) [C, Nicotinoyl carnitine benzyl ester chloride], the results for the Serum-triglyceride in the data set on Serum-triglyceride (setting [7]) and with Serum-triglyceride (setting [9]) were 10 ± 1 mg/dL and 23 ± 3 mg/dL, respectively.

In the case of `C[N+](C)(C)CC(CC(N)=O)OC(=O)c1cccnc1` (stereo not shown) [D, Nicotinoyl carnitine amide chloride . HCl], the values for the LD50 at 72 h in data set [1] and in data set [2] were > 7200 mg/kg and > 7000 mg/kg, respectively.

As for `O=C(O)c1cccnc1` [Nicotinic acid, nicotinic acid, reference compound], the Blood-free fatty acids with Blood-free fatty acids (setting [5]) is 38 μ moles/dl; in the data set with Blood-free fatty acids (setting [6]) it was 22 μ moles/dl; in the data set with Blood-free fatty acids (setting [7]) it was 60 μ moles/dl; with Blood-free fatty acids (setting [8]), 66 μ moles/dl. The “cholesterol and triglyceride levels in plasma” value in data set [3] is on record as “can be decreased”. The figures for the Serum-triglyceride in the data set with Serum-triglyceride (setting [7]) and in the data set on Serum-triglyceride (setting [9]) were 28 ± 7 mg/dL and 34 ± 5 mg/dL, respectively. For the same compound, the Serum-cholesterol with Serum-cholesterol (setting [7]) was determined as 74 mg/dL; in the data set on Serum-cholesterol (setting [8]), 70 mg/dL. In addition, the side effects entry in data set [4] was “undesirable side effects such as facial skin flush and itching”. Moreover, the Serum triglyceride was 22 mg/dL with Serum triglyceride (setting [7]) and 27 mg/dL in the data set with Serum triglyceride (setting [8]).

In general, LD50 refers to the dose expected to kill half of the subjects tested. A high value points to a less toxic substance.
